Holding throughout (assay type): in vivo
What all share (details): 312 h, rate 250 g/ha, evaluated after 13 days, 100=total damage to plant, 0=no damage to plant

The subject of experiment [1] is Lolium perenne (LOLPE). The experiment is described as follows: Post-emergence herbicidal activity, glasshouse pot test. The method in brief: (§1)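 Plants grown 8 days in soil in a glasshouse (24/16 °C day/night, 14 h light, 65% humidity), then sprayed post-emergence with compound in acetone/water (50:50) with 0.5% Tween 20. Damage scored 13 days later on a 0–100 scale (100 = total damage).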

In experiment [2] the test system is Echinochloa crus-galli (ECHCG). The experiment is described as above. The method in brief:
as §1

In experiment [3] the test system is Alopecurus myosuroides (ALOMY). The description is as above. The method in brief: as §1
The test system of experiment [4] is Avena fatua (AVEFA). Described as above. Put shortly: as §1
For experiment [5], the system named is Lolium perenne (LOLPE). Briefly: Pre-emergence herbicidal activity, glasshouse pot test. The method in brief:
(§2)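 Seeds sown in standard soil and sprayed one day after sowing with compound in acetone/water (50:50) containing 0.5% Tween 20. Glasshouse at 24/16 °C day/night, 14 h light, 65% humidity. Damage scored after 13 days on a 0–100 scale, where 100 means total damage.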

In experiment [6] the test system is Echinochloa crus-galli (ECHCG). The description is as above. Put shortly: as §2
For experiment [7], the system named is Alopecurus myosuroides (ALOMY). The experiment is described as above. Put shortly: as §2
Experiment [8] concerns Avena fatua (AVEFA). Described as above. The method in brief:
as §2

Molecules are shown by their SMILES.

Broadly, the pest or weed control is how far the test organism was held down. Higher therefore signals strong suppression. Turning to `CCc1ccc(Oc2ccc(Cl)cc2F)cc1C1=C(O)CCC1=O` [Compound A-40], the pest or weed control at 250 g/ha was found to be 10% in experiment [1]; 30% in experiment [2]; 10% in experiment [3]; 10% in experiment [4]; 10% in experiment [5]; 40% in experiment [6]. Also, the pest or weed control at 250 g/ha in experiment [7] and in experiment [8] was 0% throughout.

For the compound `CCc1ccc(Oc2ncc(Cl)cc2C(F)(F)F)cc1C1=C(O)CCC1=O` [Compound A-78], the pest or weed control at 250 g/ha in experiment [1] worked out at 90%; in experiment [2], 100%; in experiment [3] it was 100%; in experiment [4] it was 90%; in experiment [5], 100%; in experiment [6] it was 100%. The pest or weed control at 250 g/ha in experiment [7] and in experiment [8] was 70% in each case.

`O=C1CCC(O)=C1c1cc(Oc2ccc(Cl)cc2)ccc1OC(F)(F)F` [Compound A-52, 2-[5-(4-chlorophenoxy)-2-trifluoromethoxyphenyl]cyclopentane-1,3-dione]: the pest or weed control at 250 g/ha in experiment [1] was 0%; in experiment [2], 50%; in experiment [3], 0%; in experiment [4], 0%; in experiment [5] it was 0%; in experiment [6] it was 0%. Also, the pest or weed control at 250 g/ha in experiment [7] and in experiment [8] was 0% throughout.

With `CCc1ccc(Oc2ccc(C(F)(F)F)cc2Br)cc1C1=C(O)CCC1=O` [Compound A-80], the pest or weed control at 250 g/ha in experiment [1] came to 30%; in experiment [2] it was 80%; in experiment [3], 40%; in experiment [4], 50%; in experiment [5], 50%; in experiment [6], 80%. Further, the pest or weed control at 250 g/ha came to 0% in experiment [7] and 10% in experiment [8].

As to `CCc1ccc(Oc2ccc(C(F)(F)F)cc2[N+](=O)[O-])cc1C1=C(O)C2C(C1=O)[C@H]1CC[C@@H]2CC1` (stereo partly drawn) [Compound A-105], the pest or weed control at 250 g/ha in experiment [1] stood at 30%; in experiment [2], 90%; in experiment [3] it was 40%; in experiment [4], 40%; in experiment [5], 40%; in experiment [6] it was 60%. For the same compound, the pest or weed control at 250 g/ha in experiment [7] is 10%; in experiment [8], 0%.

Take `CCc1ccc(Oc2ncc(C(F)(F)F)cc2C(F)(F)F)cc1C1=C(O)CCC1=O` [Compound A-71]: the pest or weed control at 250 g/ha in experiment [1], in experiment [2], in experiment [3], in experiment [4], in experiment [5] and in experiment [6] was 100% throughout. Besides, the values for the pest or weed control at 250 g/ha in experiment [7] and in experiment [8] were 90% and 80%, respectively.

On to `CCc1ccc(Oc2ccc([N+](=O)[O-])c(Cl)c2)cc1C1=C(O)C2C(C1=O)[C@H]1CC[C@@H]2CC1` (stereo partly drawn) [Compound A-86], for which the pest or weed control at 250 g/ha was 10% in experiment [1]; 100% in experiment [2]; 10% in experiment [3]; 10% in experiment [4]; 20% in experiment [5]; 20% in experiment [6]. Besides, the pest or weed control at 250 g/ha in experiment [7] and in experiment [8] was 0% in each case.

Take `CCc1ccc(Oc2ccc(Cl)cc2)cc1C1=C(O)[C@H]2[C@H]3CC[C@H](C3)[C@H]2C1=O` [Compound A-24]: the pest or weed control at 250 g/ha in experiment [1] was 60%; in experiment [2] it was 100%; in experiment [3], 60%; in experiment [4], 70%; in experiment [5], 40%; in experiment [6], 50%. The pest or weed control at 250 g/ha was 10% in experiment [7] and 30% in experiment [8].

As to `CCc1ccc(Oc2ccc(OC(F)(F)F)cc2)cc1C1=C(O)[C@H]2[C@@H](C1=O)[C@@H]1CC[C@H]2O1` [Compound A-50], the pest or weed control at 250 g/ha in experiment [1], in experiment [2], in experiment [3], in experiment [4], in experiment [5] and in experiment [6] was 100% in each case. Further, the pest or weed control at 250 g/ha in experiment [7] and in experiment [8] was 100% each time.

For the compound `CCc1ccc(Oc2ccc(Br)cc2F)cc1C1=C(O)[C@H]2[C@H]3CC[C@H](C3)[C@H]2C1=O` [Compound A-27], the pest or weed control at 250 g/ha in experiment [1] was determined as 80%; in experiment [2] it was 80%; in experiment [3], 60%; in experiment [4] it was 70%; in experiment [5], 40%; in experiment [6] it was 60%. Besides, the pest or weed control at 250 g/ha in experiment [7] came to 20%; in experiment [8], 0%.

On to `CCc1ccc(Oc2nc3ccc(OC)cc3s2)cc1C1=C(O)CCC1=O` [Compound A-75], for which the pest or weed control at 250 g/ha came out at 20% in experiment [1]; 40% in experiment [2]; 10% in experiment [3]; 0% in experiment [4]; 80% in experiment [5]; 100% in experiment [6]. The values for the pest or weed control at 250 g/ha in experiment [7] and in experiment [8] were 30% and 20%, respectively.

As for `CCc1ccc(Oc2ccc(C(F)(F)F)cn2)cc1C1=C(O)CCC1=O` [Compound A-60], the pest or weed control at 250 g/ha in experiment [1] was 80%; in experiment [2], 100%; in experiment [3], 90%; in experiment [4] it was 80%; in experiment [5], 80%; in experiment [6], 100%. For the same compound, the pest or weed control at 250 g/ha was determined as 80% in experiment [7] and 70% in experiment [8].

Turning to `CCc1ccc(Oc2ccc(Cl)cc2)cc1C1=C(O)CCC1=O` [Compound A-39], the pest or weed control at 250 g/ha in experiment [1] worked out at 10%; in experiment [2], 60%; in experiment [3], 10%; in experiment [4] it was 0%; in experiment [5], 0%; in experiment [6] it was 40%. The pest or weed control at 250 g/ha in experiment [7] was found to be 20%; in experiment [8], 30%.

On to `CCc1ccc(Oc2ccc(Br)cc2)cc1C1=C(O)[C@H]2[C@@H](C1=O)[C@@H]1CC[C@H]2O1` [Compound A-4], for which the pest or weed control at 250 g/ha in experiment [1] stood at 90%; in experiment [2], 100%; in experiment [3] it was 100%; in experiment [4], 100%; in experiment [5], 90%; in experiment [6], 100%. Moreover, the pest or weed control at 250 g/ha amounted to 80% in experiment [7] and 90% in experiment [8].

Take `CCc1ccc(Oc2ccc(Br)cc2C)cc1C1=C(O)[C@H]2[C@@H](C1=O)[C@@H]1CC[C@H]2O1` [Compound A-3]: the pest or weed control at 250 g/ha in experiment [1] came to 70%; in experiment [2], 100%; in experiment [3], 90%; in experiment [4], 90%; in experiment [5] it was 70%; in experiment [6], 90%. Besides, the figures for the pest or weed control at 250 g/ha in experiment [7] and in experiment [8] were 60% and 30%, respectively.

Turning to `CCc1ccc(Oc2ncc(Cl)cc2F)cc1C1=C(O)C2C(C1=O)[C@H]1CC[C@@H]2CC1` (stereo partly drawn) [Compound A-14], the pest or weed control at 250 g/ha in experiment [1] amounted to 90%; in experiment [2], 100%; in experiment [3], 100%; in experiment [4] it was 100%; in experiment [5], 90%; in experiment [6] it was 100%. For the same compound, the pest or weed control at 250 g/ha in experiment [7] and in experiment [8] was 60% each time.

As to `CCc1ccc(Oc2ccc(Cl)cc2F)cc1C1=C(O)[C@H]2[C@H]3CC[C@H](C3)[C@H]2C1=O` [Compound A-25], the pest or weed control at 250 g/ha in experiment [1] stood at 60%; in experiment [2], 90%; in experiment [3], 50%; in experiment [4], 40%; in experiment [5], 70%; in experiment [6], 70%. In addition, the results for the pest or weed control at 250 g/ha in experiment [7] and in experiment [8] were 20% and 30%, respectively.

On to `CCc1ccc(Oc2ccc(Cl)cc2)cc1C1=C(O)C2C(C1=O)[C@H]1CC[C@@H]2CC1` (stereo partly drawn) [Compound A-31], for which the pest or weed control at 250 g/ha in experiment [1] was 40%; in experiment [2] it was 100%; in experiment [3] it was 100%; in experiment [4], 80%; in experiment [5], 50%; in experiment [6], 90%. Besides, the pest or weed control at 250 g/ha in experiment [7] turned out to be 20%; in experiment [8], 0%.

Source of the values: patent publication US8895474B2, “Herbicidally active cyclopentanediones and derivatives thereof, and their use in controlling weeds” (Syngenta Limited, priority 2009, dated 2014).
